Tests used:
[1] = test system: EG.7 cells; test: Viability and surface marker expression of treated EG.7 cells; assay type: cell-based, mouse
[2] = target: T1, H-2K^b (Mus musculus, UniProt P01901); test: RMA-S dissociation assay; assay type: binding; conditions: PNT before loading with peptides
[3] = target: T1, H-2K^b; test: RMA-S binding assay; conditions: 2.5 mM PNT before peptide loading
[4] = test system: catalytic subunits of proteasomes; test: Amount of catalytic subunits of proteasomes in EG7 tumor cells; assay type: cell-based, mouse; conditions: EG7 tumor cells treated with PNT or bortezomib
[5] = test system: human melanoma UACC903 cell line; test: SILAC LC-MS/MS of HLA-A, -B, -C bound peptides after PNT; conditions: UACC903 cells
[6] = test system: proteasome; test: Proteasomal activity in tumor cell lysates; assay type: biochemical, mouse
[7] = test system: H-2K^b associated peptides of EG.7 cells; assay type: cell-based, mouse
[8] = test system: EL4 tumor cells; conditions: pre-treatment of tumor cells with PNT; 5:1 ratio, annexin V/DAPI, 5 and 16 hours
[9] = test system: EL4 cells; test: Empty MHC class I detection by […] loading of EL4 cells; assay type: cell-based, mouse; conditions: EL4 cells treated with PNT, n=4
[10] = test system: nitrotyrosine (NT) in LLC tumor tissue; test: Immunofluorescent NT staining of LLC tumor tissue; assay type: in vivo, mouse; conditions: LLC tumor-bearing mice treated with RTA408
[11] = test system: B16F10-iNOS cells; test: CTL assay of Pmel-1 cells against mixed B16F10-control and B16F10-iNOS cells; assay type: cell-based, mouse; conditions: B16F10-control and B16F10-iNOS mixed 1:1, activated Pmel-1 cells, pre-treated with RTA408
[12] = target: T2, H-2D^b (Mus musculus, UniProt P01899); test: RMA-S dissociation assay, H-2D^b; assay type: binding
T2 sequence (P01899 25-362): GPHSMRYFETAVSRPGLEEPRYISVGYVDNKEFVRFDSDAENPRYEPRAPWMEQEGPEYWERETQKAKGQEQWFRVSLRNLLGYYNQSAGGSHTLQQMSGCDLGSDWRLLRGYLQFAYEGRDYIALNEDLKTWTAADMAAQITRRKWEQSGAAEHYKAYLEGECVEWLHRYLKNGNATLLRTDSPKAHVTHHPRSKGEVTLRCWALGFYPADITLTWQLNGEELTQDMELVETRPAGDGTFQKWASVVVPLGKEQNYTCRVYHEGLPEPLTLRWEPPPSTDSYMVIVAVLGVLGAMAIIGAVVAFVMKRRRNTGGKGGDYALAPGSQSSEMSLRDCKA
T2 sequence (P01887 21-119 partner): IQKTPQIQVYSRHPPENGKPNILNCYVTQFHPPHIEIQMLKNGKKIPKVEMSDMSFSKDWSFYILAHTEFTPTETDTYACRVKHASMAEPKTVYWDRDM

T1 sequence (P01901 whole entry, looked up): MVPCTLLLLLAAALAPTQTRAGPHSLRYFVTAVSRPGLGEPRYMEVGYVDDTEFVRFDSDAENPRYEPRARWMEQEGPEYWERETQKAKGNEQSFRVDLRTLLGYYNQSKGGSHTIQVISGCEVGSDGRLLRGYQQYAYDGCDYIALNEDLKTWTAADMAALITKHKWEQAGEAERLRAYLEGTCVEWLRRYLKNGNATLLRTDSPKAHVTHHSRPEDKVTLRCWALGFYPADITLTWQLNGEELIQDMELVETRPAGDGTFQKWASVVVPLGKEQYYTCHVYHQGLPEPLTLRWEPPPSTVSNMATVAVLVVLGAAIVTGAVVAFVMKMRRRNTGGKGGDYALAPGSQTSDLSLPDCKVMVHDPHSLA

## O=NOO [PNT, peroxynitrite]
[1]; 2.5 mM PNT
  NT (nitrotyrosine) expression: substantial up-regulation
  cell viability: did not affect
  expression of MHCI H-2K^b molecules: did not affect
[2]
  effect of PNT treatment of RMA-S cells on dissociation rates: no detectable effect
[3]
  effect of PNT pre-treatment of RMA-S cells on binding of the peptides: only a small decrease
[4]
  amount of 6 catalytic subunits of proteasomes: did not affect
[5]
  change in HLA-A, -B, -C bound peptide profile: substantially changed the peptide profile
[6]; EG7 and LLC cells, 100 ng/ml IFN-γ 24 hours, then PNT
  effect on proteasomal activity in IFN-γ pre-treated vs non-pre-treated cells: the same
[6]; EG.7 cells, 2.5 mM PNT, chymotrypsin, trypsin and caspase-like activities
  recovery of proteasomal activity over time: almost completely restored by 22 hours
[6]; EL4 and LLC cell lines, 2.5 mM PNT 5 min on ice, proteasome-specific fluorogenic substrates
  proteasome types and activities affected: affected mostly chymotrypsin- and trypsin-like activities associated with constitutive proteasomes
[6]; tumor cells treated with 2.5 mM PNT for 5 min, n=3
  proteasomal activity: profound decrease
[7]; 2.5 mM PNT on ice 5 min, 16 h after the treatment
  recovery of H-2K^b peptide profile: returned to the pre-treatment level
[7]; 2.5 mM PNT on ice 5 min, right after the treatment (0 min)
  change in H-2K^b peptide profile: no substantial changes
[8]
  killing of tumor cells by CTLs generated against PNT-resistant peptides: did not affect killing
[9]
  total H-2Kb expression, PNT-treated vs control cells: no differences

## CC1(C)CC[C@]2(NC(=O)C(C)(F)F)CC[C@]3(C)[C@H](C(=O)C=C4[C@@]5(C)C=C(C#N)C(=O)C(C)(C)[C@@H]5CC[C@]43C)[C@@H]2C1 [RTA408, Omaveloxolone]
[10]
  NT staining in tumor tissues: reduced NT staining
[11]
  resistance of B16F10-iNOS cells to killing by CTLs: completely abrogated resistance

## CC(C)C[C@H](NC(=O)[C@H](Cc1ccccc1)NC(=O)c1cnccn1)B(O)O [bortezomib]
[1]; 15 nM bortezomib
  expression of MHC class I (H2K^b): did not affect
  viability of tumor cells: did not affect
[4]
  amount of 6 catalytic subunits of proteasomes: did not affect
[6]; EG.7 cells, 15 nM bortezomib, N=5
  proteasomal activity: modest inhibition
[7]; EG.7 cells, 15 nM bortezomib
  representation of MHCI peptides vs non-treated cells: substantial decrease

## EGSRNQDWL
[12]
  dissociation from H-2D^b: dissociated significantly faster
